Experimental data from the supplement of paper PMC10307832.

How the values were obtained:
Test in all cases: relative viability (nuclei count vs DMSO), 5 days (fraction); higher = more cells survive
[1] = system: BEN
How it was run: (§1)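 Dosing by pin tool came one day after lung cancer cell lines were seeded in 1536-well plates, using either one drug or a fixed anchor-drug dose plus five library-drug doses (not always all listed) in √10 steps. After 5 days, nuclei were counted on 4× images. Relative viability is treated-well nuclei count divided by vehicle-well nuclei count, and values are medians of duplicate plates.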

[2] = system: NCI-H1437
How it was run: as §1

[3] = system: COR-L23
How it was run: as §1

[4] = system: HARA
How it was run: as §1

[5] = system: NCI-H2170
How it was run: as §1

[6] = system: LK-2
How it was run: as §1

[7] = system: PC-14
How it was run: as §1

[8] = system: NCI-H3122
How it was run: as §1

[9] = system: NCI-H441
How it was run: as §1

[10] = system: NCI-H1666
How it was run: as §1

[11] = system: CAL-12T
How it was run: as §1

[12] = system: NCI-H661
How it was run: as §1

[13] = system: NCI-H2009
How it was run: as §1

[14] = system: EKVX
How it was run: as §1

[15] = system: NCI-H727
How it was run: as §1

[16] = system: ABC-1
How it was run: as §1

[17] = system: LU99A
How it was run: as §1

[18] = system: SW 900
How it was run: as §1

[19] = system: 201T
How it was run: as §1

[20] = system: NCI-H838
How it was run: as §1

[21] = system: NCI-H1650
How it was run: as §1

[22] = system: COR-L 105
How it was run: as §1

## Oc1nc(-c2ccc(C(F)(F)F)cc2)nc2c1CSCC2 [XAV939] + CCNC(=O)c1noc(-c2cc(C(C)C)c(O)cc2O)c1-c1ccc(CN2CCOCC2)cc1 [Luminespib] (partner 0.01 µM)
[1]; first compound 0.08 µM
  relative viability: 0.237
[1]; first compound 0.253 µM
  relative viability: 0.211
[1]; first compound 0.8 µM
  relative viability: 0.334
[1]; first compound 2.53 µM
  relative viability: 0.262
[2]; first compound 0.08 µM
  relative viability: 1.2
[2]; first compound 0.253 µM
  relative viability: 1.09
[2]; first compound 0.8 µM
  relative viability: 1.14
[2]; first compound 2.53 µM
  relative viability: 0.911
[3]; first compound 0.08 µM
  relative viability: 0.929
[3]; first compound 0.253 µM
  relative viability: 0.642
[3]; first compound 0.8 µM
  relative viability: 0.615
[3]; first compound 2.53 µM
  relative viability: 0.792
[4]; first compound 0.08 µM
  relative viability: 1.29
[4]; first compound 0.253 µM
  relative viability: 0.877
[4]; first compound 0.8 µM
  relative viability: 0.865
[4]; first compound 2.53 µM
  relative viability: 0.675
[5]; first compound 0.08 µM
  relative viability: 0.764
[5]; first compound 0.253 µM
  relative viability: 0.754
[5]; first compound 0.8 µM
  relative viability: 0.704
[5]; first compound 2.53 µM
  relative viability: 0.529
[6]; first compound 0.08 µM
  relative viability: 0.202
[6]; first compound 0.253 µM
  relative viability: 0.183
[6]; first compound 0.8 µM
  relative viability: 0.192
[6]; first compound 2.53 µM
  relative viability: 0.167
[7]; first compound 0.08 µM
  relative viability: 0.163
[7]; first compound 0.253 µM
  relative viability: 0.174
[7]; first compound 0.8 µM
  relative viability: 0.164
[7]; first compound 2.53 µM
  relative viability: 0.179
[8]; first compound 0.08 µM
  relative viability: 0.0855
[8]; first compound 0.253 µM
  relative viability: 0.0791
[8]; first compound 0.8 µM
  relative viability: 0.0658
[8]; first compound 2.53 µM
  relative viability: 0.0658
[9]; first compound 0.08 µM
  relative viability: 0.374
[9]; first compound 0.253 µM
  relative viability: 0.355
[9]; first compound 0.8 µM
  relative viability: 0.245
[9]; first compound 2.53 µM
  relative viability: 0.282
[10]; first compound 0.08 µM
  relative viability: 1.07
[10]; first compound 0.253 µM
  relative viability: 0.666
[10]; first compound 0.8 µM
  relative viability: 0.981
[10]; first compound 2.53 µM
  relative viability: 0.848
[11]; first compound 0.08 µM
  relative viability: 0.54
[11]; first compound 0.253 µM
  relative viability: 0.363
[11]; first compound 0.8 µM
  relative viability: 0.363
[11]; first compound 2.53 µM
  relative viability: 0.3
[12]; first compound 0.08 µM
  relative viability: 0.894
[12]; first compound 0.253 µM
  relative viability: 0.892
[12]; first compound 0.8 µM
  relative viability: 0.913
[12]; first compound 2.53 µM
  relative viability: 0.933
[13]; first compound 0.08 µM
  relative viability: 1.09
[13]; first compound 0.253 µM
  relative viability: 0.883
[13]; first compound 0.8 µM
  relative viability: 1
[13]; first compound 2.53 µM
  relative viability: 0.94
[14]; first compound 0.08 µM
  relative viability: 0.947
[14]; first compound 0.253 µM
  relative viability: 0.786
[14]; first compound 0.8 µM
  relative viability: 0.818
[14]; first compound 2.53 µM
  relative viability: 0.7
[15]; first compound 0.08 µM
  relative viability: 0.31
[15]; first compound 0.253 µM
  relative viability: 0.345
[15]; first compound 0.8 µM
  relative viability: 0.472
[15]; first compound 2.53 µM
  relative viability: 0.342
[16]; first compound 0.08 µM
  relative viability: 0.778
[16]; first compound 0.253 µM
  relative viability: 0.584
[16]; first compound 0.8 µM
  relative viability: 0.795
[16]; first compound 2.53 µM
  relative viability: 0.405
[17]; first compound 0.08 µM
  relative viability: 0.277
[17]; first compound 0.253 µM
  relative viability: 0.253
[17]; first compound 0.8 µM
  relative viability: 0.254
[17]; first compound 2.53 µM
  relative viability: 0.195
[18]; first compound 0.08 µM
  relative viability: 0.171
[18]; first compound 0.253 µM
  relative viability: 0.18
[18]; first compound 0.8 µM
  relative viability: 0.183
[18]; first compound 2.53 µM
  relative viability: 0.151
[19]; first compound 0.08 µM
  relative viability: 1.02
[19]; first compound 0.253 µM
  relative viability: 0.994
[19]; first compound 0.8 µM
  relative viability: 1.05
[19]; first compound 2.53 µM
  relative viability: 0.877
[20]; first compound 0.08 µM
  relative viability: 0.338
[20]; first compound 0.253 µM
  relative viability: 0.37
[20]; first compound 0.8 µM
  relative viability: 0.325
[20]; first compound 2.53 µM
  relative viability: 0.304
[21]; first compound 0.08 µM
  relative viability: 0.196
[21]; first compound 0.253 µM
  relative viability: 0.225
[21]; first compound 0.8 µM
  relative viability: 0.177
[21]; first compound 2.53 µM
  relative viability: 0.197
[22]; first compound 0.08 µM
  relative viability: 0.964
[22]; first compound 0.253 µM
  relative viability: 0.742
[22]; first compound 0.8 µM
  relative viability: 0.458
[22]; first compound 2.53 µM
  relative viability: 0.763
